# Measured values published in publication PMC12560758, “YsxC is a placeholder for ribosomal protein uL2 during 50S ribosomal subunit assembly” (Nucleic Acids Research, 2025).
# Molecular target: T1, YsxC (Bacillus subtilis, UniProt P38424)
# T1 construct: gene engB; full-length YsxC, 22 kDa, N-terminal His6 tag (pET15b-ysxC) cleaved by thrombin, expressed in E. coli BL21(DE3)
# Assay: cryo-EM structure of the complex on the […].5S(YsxC) particle
# Format: binding
# Conditions: 2 mM GMPPNP, 15 mM MgCl2, 50 mM NH4Cl, pH 7.5, 37 °C; nucleotide site; non-hydrolyzable GTP analogue
# T1 sequence (P38424 whole entry): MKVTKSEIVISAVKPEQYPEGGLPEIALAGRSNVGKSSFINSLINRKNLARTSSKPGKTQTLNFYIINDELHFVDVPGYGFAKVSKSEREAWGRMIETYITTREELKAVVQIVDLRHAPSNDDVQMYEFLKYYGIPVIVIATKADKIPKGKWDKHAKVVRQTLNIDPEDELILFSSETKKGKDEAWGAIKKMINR
compound,measurement,value
Nc1nc2c(ncn2[C@@H]2O[C@H](COP(=O)(O)OP(=O)(O)NP(=O)(O)O)[C@@H](O)[C@H]2O)c(=O)[nH]1 [GMPPNP],cryo-EM structure of the complex on the 44.5S(YsxC) particle,"the density corresponding to the GMPPNP nucleotide (colored in blue), are indicated"
